In ChEMBL document CHEMBL6092217 (Eur J Med Chem, 2024):
Calls of active or inactive are those of the source. No cut-off for these calls is given here.

Legend:
HT-29 [1] = test: Induction of cell cycle arrest in human HT-29 cells assessed as effect on CDC2 expression at 50 to 200 nM incubated for 24 hrs by Western blot analysis; format: functional, cell-based; details: dose 50-200 nM
HT-29 [2] = test: Induction of apoptosis in human HT-29 cells assessed as upregulation of Bax level at 50 to 200 nM incubated for 24 hrs by Western blot analysis; format: functional, cell-based; details: dose 50-200 nM
HT-29 [3] = test: Induction of apoptosis in human HT-29 cells assessed as late apoptotic cells at 100 nM incubated for 24 hrs by FITC/PI staining based flow cytometry analysis (reference value: 0.20%); format: functional
HT-29 [4] = test: Induction of cell cycle arrest in human HT-29 cells assessed as accumulation of cells at G1 phase at 50 nM incubated for 24 hrs by flow cytometry analysis (reference value: 67.6%); format: functional
[5] = Toxicity in BALB/c mouse assessed as lung damage at 10 to 40 mg/kg, iv measured after 21 days by H and E staining based analysis; format: organism-based; details: in vivo, 504 h, dose 10-40 mg/kg, time 21 day
Tubulin = test: (§1) Inhibition of tubulin polymerization (unknown origin) in presence of GTP by fluorescence plate reader analysis; format: protein-complex assay, Homo sapiens
Tubulin (Homo sapiens) [6] = biological target: T1, Tubulin (Homo sapiens) (UniProt P68371+Q9H4B7+P0DPH7+P68366+Q13509+Q71U36+P04350+Q3ZCM7+P07437+P68363+Q9BQE3+Q6PEY2+Q13885+Q9BVA1+Q9BUF5); test: as §1; format: protein-complex assay; details: dose 0.625-10 µM
[7] = Toxicity in ICR mouse assessed as effect on ALT level at 10 to 40 mg/kg, iv administered every 2 days and measured after 14 days; format: organism-based; details: in vivo, 336 h, dose 10-40 mg/kg, time 14 day
HT-29 [8] = test: Antitumor activity against human HT-29 cells xenografted in BALB/c mouse assessed as tumor growth inhibition at 10 mg/kg, iv measured after 21 days; format: functional; details: HT-29, 504 h, time 21 day, read-out: TGI
HT-29 [9] = test: Induction of apoptosis in human HT-29 cells assessed as downregulation of Bcl-2 level at 50 to 200 nM incubated for 24 hrs by Western blot analysis; format: functional, cell-based; details: dose 50-200 nM
HT-29 [10] = test: Induction of cell cycle arrest in human HT-29 cells assessed as accumulation of cells at G2 phase at 100 nM incubated for 24 hrs by flow cytometry analysis (reference value: 13 %); format: functional
A549 [11] = test: Inhibition of cell invasion in human A549 cells measured for 24 hrs by Transwell assay; format: functional, cell-based; details: dose 50-100 nM
[12] = Toxicity in ICR mouse assessed as effect on monocyte count at 10 to 40 mg/kg, iv administered every 2 days and measured after 14 days; format: organism-based; details: in vivo, 336 h, dose 10-40 mg/kg, time 14 day
PC-3 = test: Antiproliferative activity against human PC-3 cells assessed as cell viability incubated for 72 hrs by MTT assay; format: functional, cell-based; details: PC-3, 72 h
HT-29 [13] = test: Induction of apoptosis in human HT-29 cells assessed as late apoptotic cells at 50 nM incubated for 24 hrs by FITC/PI staining based flow cytometry analysis (reference value: 0.20%); format: functional
HT-29 [14] = test: Induction of cell cycle arrest in human HT-29 cells assessed as increase in cyclin-B1 expression incubated for 24 hrs by Western blot analysis; format: functional, cell-based; details: dose 50-200 nM
[15] = Binding affinity to porcine brain tubulin assessed as dissociation constant measured after 20 mins by fluorescence based analysis; set-up: species or system Sus scrofa
HT-29 [16] = test: Induction of apoptosis in human HT-29 cells assessed as necrotic cells at 200 nM incubated for 24 hrs by FITC/PI staining based flow cytometry analysis (reference value: 0.017 %); format: functional
HT-29 [17] = test: Induction of apoptosis in human HT-29 cells assessed as upregulation of cleaved PARP level at 50 to 200 nM incubated for 24 hrs by Western blot analysis; format: functional, cell-based; details: dose 50-200 nM
HT-29 [18] = test: Induction of cell cycle arrest in human HT-29 cells assessed as accumulation of cells at G1 phase at 100 nM incubated for 24 hrs by flow cytometry analysis (reference value: 67.6%); format: functional
[19] = Clerance in Sprague-Dawley rat at 5 mg/kg, iv measured upto 24 hrs by HPLC-MS analysis; format: ADME, organism-based; details: in vivo
Mitochondrial membrane = test: Induction of mitochondrial membrane potential loss in human HT-29 cells assessed as increase in green fluorescence at 50 to 100 nM incubated for 24 hrs by JC-1 staining based confocal microscopic analysis; format: cell membranes; details: dose 50-100 nM
HT-29 [20] = test: Antitumor activity against human HT-29 cells xenografted in BALB/c mouse assessed as reduction in Ki67 expression at 10 to 40 mg/kg, iv measured after 21 days by immunohistochemical analysis; format: functional, organism-based; details: dose 10-40 mg/kg, time 21.0 day
[21] = Toxicity in ICR mouse assessed as effect on AST level at 10 to 40 mg/kg, iv administered every 2 days and measured after 14 days; format: organism-based; details: in vivo, 336 h, dose 10-40 mg/kg, time 14 day
[22] = Toxicity in ICR mouse assessed as effect on lymphocytes count at 10 to 40 mg/kg, iv administered every 2 days and measured after 14 days; format: organism-based; details: in vivo, 336 h, dose 10-40 mg/kg, time 14 day
HT-29 [23] = test: Induction of apoptosis in human HT-29 cells assessed as viable cells at 100 nM incubated for 24 hrs by FITC/PI staining based flow cytometry analysis (reference value: 91.6%); format: functional; details: read-out: Activity
[24] = Toxicity in ICR mouse assessed as effect on hemoglobin level at 10 to 40 mg/kg, iv administered every 2 days and measured after 14 days; format: organism-based; details: in vivo, 336 h, dose 10-40 mg/kg, time 14 day
HT-29 [25] = test: Induction of apoptosis in human HT-29 cells assessed as early apoptotic cells at 50 nM incubated for 24 hrs by FITC/PI staining based flow cytometry analysis (reference value: 8.14%); format: functional
HUVEC = test: Inhibition of tube formation in HUVEC cells incubated for 6 hrs by inverted microscopic analysis; format: functional, cell-based; details: Homo sapiens, dose 50-100 nM
Tubulin (Homo sapiens) [26] = biological target: T1, Tubulin (Homo sapiens); test: Binding affinity to Tubulin colchicine binding site in human HT-29 cells assessed as inhibition of EBI-beta-tubulin adduct formation at 1 to 100 uM preincubated with compound for 2 hrs followed by EBI addition measured after 1.5 hrs by EBI competition based Western blotting analysis; format: cell-based; details: dose 1-100 µM, time 3.5 hrs
A549 [27] = test: Inhibition of cell migration in human A549 cells incubated for 24 hrs by wound healing assay; format: functional, cell-based; details: dose 50-100 nM
[28] = MRT (0 to t) in Sprague-Dawley rat at 5 mg/kg, iv measured upto 24 hrs by HPLC-MS analysis; format: ADME, organism-based; details: in vivo
[29] = Toxicity in ICR mouse assessed as effect on CK level at 10 to 40 mg/kg, iv administered every 2 days and measured after 14 days; format: organism-based; details: in vivo, 336 h, dose 10-40 mg/kg, time 14 day
HT-29 [30] = test: Induction of apoptosis in human HT-29 cells assessed as viable cells at 50 nM incubated for 24 hrs by FITC/PI staining based flow cytometry analysis (reference value: 91.6%); format: functional; details: read-out: Activity
[31] = Toxicity in BALB/c mouse assessed as kidney damage at 10 to 40 mg/kg, iv measured after 21 days by H and E staining based analysis; format: organism-based; details: in vivo, 504 h, dose 10-40 mg/kg, time 21 day
[32] = Toxicity in ICR mouse assessed as effect on RBC count at 10 to 40 mg/kg, iv administered every 2 days and measured after 14 days; format: organism-based; details: in vivo, 336 h, dose 10-40 mg/kg, time 14 day
RKO = test: Antiproliferative activity against human RKO cells assessed as cell viability incubated for 72 hrs by MTT assay; format: functional, cell-based

- IC50 (Tubulin): 3160 nM
- inhibition (Tubulin (Homo sapiens) [6]): Dose-dependent-effect
- IC50 (PC-3): 130 nM
- Kd [15]: 8790 nM
- clearance [19]: 22.2 mL/min/kg
- Activity (Mitochondrial membrane): Active
- inhibition (Tubulin (Homo sapiens) [26]): Active
- MRT last at 24 h [28]: 46.8 min
SMILES: COc1ccc(N(C)c2nc(/C=C/c3cccc(OC)c3)nc3ccccc23)cc1
- Activity (HT-29 [1]): inactive
- Activity (HT-29 [2]): Active
- Activity (HT-29 [3]): 27.2%
- Activity (HT-29 [4]): 64.6%
- Activity [5]: Non-toxic
- Activity [7]: Non-toxic
- inhibition in vivo at 10 mg/kg (HT-29 [8]): 53%
- Activity (HT-29 [9]): Active
- Activity (HT-29 [10]): 39.8%
- inhibition (A549 [11]): Dose-dependent-effect
- Activity [12]: Non-toxic
- Activity (HT-29 [13]): 13.6%
- Activity (HT-29 [14]): Dose-dependent-effect
- Activity (HT-29 [16]): 1.36%
- Activity (HT-29 [17]): Active
- Activity (HT-29 [18]): 35.6%
- Activity (HT-29 [20]): Active
- Activity [21]: Non-toxic
- Activity [22]: Non-toxic
- viability at 0.1 µM (HT-29 [23]): 67.2%
- Activity [24]: Non-toxic
- Activity (HT-29 [25]): 12.7%
- inhibition (HUVEC): Dose-dependent-effect
- inhibition (A549 [27]): Dose-dependent-effect
- Activity [29]: Non-toxic
- viability at 0.05 µM (HT-29 [30]): 72%
- Activity [31]: Non-toxic
- Activity [32]: Non-toxic
- IC50 (RKO): 100 nM
